Literature values, collected in patent US20260345588A1, “COMBINED AGENTS WITH SYNERGISTIC EFFECTS AGAINST GLIOMAS” (Eberhard Karls Universitaet Tuebingen Medizinische Fakultaet, priority 2023, published 2026).
Values belong to the compound of their own block, whether it stands above or below them.

Experiments:
[1] = system: cellular EHMT2
[2] = system: EHMT1; details: EHMT1 peptide
[3] = system: EHMT2; details: EHMT2 peptide
[4] = system: Alzheimer's disease; details: phase-IIa clinical trial; treatment discontinued
[5] = use of tideglusib
[6] = system: Fit3; details: in words
[7] = system: Pim1; details: ATP competitive inhibitor; cell-free assay
[8] = system: haspin; details: in words
[9] = system: Pim2; details: Pim1 versus Pim2
[10] = system: Pim3; details: Pim1 versus Pim3

Structure (SMILES): Cn1nnc2c(C(N)=O)ncn2c1=O [Temozolomide]
- injection-site reactions (people receiving the solution for infusion): injection-site reactions, such as pain, irritation, itching, warmth, swelling and redness, as well as bruising
- side effects (people treated with temozolomide): nausea (feeling sick), vomiting, constipation, loss of appetite, alopecia (hair loss), headache, fatigue (tired-ness), convulsions (fits), rash, neutropenia or lymphopenia (low white-blood-cell counts), and thrombocytopenia (low blood platelet counts)

- IC50 [1]: < 100 nM
- IC50 [2]: < 100 nM
- IC50 [3]: < 100 nM
Structure (SMILES): CNCc1cnn(-c2cc(Nc3nc(C)cc(NC)n3)ccc2OC)c1 [EHMT 2-IN-1]

Structure (SMILES): O=c1sn(-c2cccc3ccccc23)c(=O)n1Cc1ccccc1 [Tideglusib]
- clinical efficacy in Alzheimer's disease [4]: lack of efficacy
- adverse reactions [5]: mild-moderate adverse reactions, which included transient increases in serum creatine kinase, ALT—or gGT—diarrhea, nausea, cough, fatigue, and headache

Structure (SMILES): CN1CCC(CNc2ccc3ncc(-c4cccc(OC(F)(F)F)c4)n3n2)CC1 [SGI-1776]
- potency to Fit3 [6]: potent
- potency to haspin [8]: potent
